For this test, the system named is Human immunodeficiency virus 1. The test can be described thus: Inhibition of HIV-1 P24 production. It counts as functional, organism-based.
[1] abbreviates: read-out: Log 1/EC50 (converted).

As to `CC1=C(CCC(=O)O)c2cc3[nH]c(cc4[nH]c(cc5nc(cc1n2)C(CCC(=O)O)=C5CC(=O)O)c(CCC(=O)O)c4C)c(CCC(=O)O)c3CC(=O)O`, the EC50 runs as follows: (Human immunodeficiency virus 1) 20.7 µM; under setting [1], 20.9 µM.

With `CC1=C(CCC(=O)O)c2cc3[nH]c(cc4[nH]c(cc5nc(cc1n2)C(CCC(=O)O)=C5CC(=O)O)c(CCC(=O)O)c4CC(=O)O)c(CCC(=O)O)c3CC(=O)O`, the EC50 was 10.7 µM (Human immunodeficiency virus 1) and 10.7 µM under setting [1].

`NC(=O)c1ccc(/C2=C3\C=CC(=N3)/C(c3ccc(C(N)=O)cc3)=c3/cc/c([nH]3)=C(\c3ccc(C(N)=O)cc3)C3C=CC(N3)/C(c3ccc(C(N)=O)cc3)=C3/C=CC2=N3)cc1` (stereo unspecified): the EC50 is 1.07 µM (Human immunodeficiency virus 1) and 1.07 µM under setting [1].

For the compound `C=Cc1c(C)c2cc3[nH]c(cc4nc(cc5nc(cc1[nH]2)C(C)=C5CCC(=O)OC)C(CCC(=O)OC)=C4C)c(C)c3C=C`, the EC50 was 67.9 µM (Human immunodeficiency virus 1) and 67.6 µM under setting [1].

In turn, `O=C(O)c1ccc(/C2=C3\C=CC(=N3)/C(c3ccc(C(=O)O)cc3)=c3/cc/c([nH]3)=C(\c3ccc(C(=O)O)cc3)C3C=CC(N3)/C(c3ccc(C(=O)O)cc3)=C3/C=CC2=N3)cc1` (stereo unspecified) had an EC50 (Human immunodeficiency virus 1) of 0.63 µM.

As to HEMIN, the EC50 was determined as 35.3 µM.

`Cc1ccc(/C2=C3\C=CC(=N3)/C(c3ccc(C(=O)O)cc3)=c3/cc/c([nH]3)=C(\c3ccc(C)cc3)C3C=CC(N3)/C(c3ccc(C)cc3)=C3/C=CC2=N3)cc1` (stereo unspecified): the EC50 runs as follows: (Human immunodeficiency virus 1) 14.7 µM; under setting [1], 14.8 µM.

For the compound `O=C(O)CCC1=C(CC(=O)O)c2cc3nc(cc4[nH]c(cc5[nH]c(cc1n2)c(CC(=O)O)c5CCC(=O)O)c(CC(=O)O)c4CCC(=O)O)C(CC(=O)O)=C3CCC(=O)O`, the EC50 by setting is: (Human immunodeficiency virus 1) 9.04 µM; under setting [1], 9.12 µM.

Consider `C=CC1=C(C)c2cc3[nH]c(cc4nc(cc5[nH]c(cc1n2)c(C)c5CCC(=O)O)C(CCC(=O)O)=C4C)c(C)c3C=C` [PROTOPORPHYRIN], for which the EC50 was 2.17 µM (Human immunodeficiency virus 1) and 2.19 µM under setting [1].

For the compound `CN1C2C=CC1/C(c1ccc(C(=O)O)cc1)=c1/cc/c([nH]1)=C(\c1ccc(C(=O)O)cc1)C1=N/C(=C(/c3ccc(C(=O)O)cc3)C3=N/C(=C\2c2ccc(C(=O)O)cc2)C=C3)C=C1` (stereo unspecified), the EC50 runs as follows: (Human immunodeficiency virus 1) 0.774 µM; under setting [1], 1.29 µM.

With `O=C(O)C1=CC(=C(c2ccc(O)c(C(=O)O)c2)c2ccc(O)c(C(=O)O)c2)C=CC1=O` [AURINTRICARBOXYLIC ACID], the EC50 (Human immunodeficiency virus 1) is 28.4 µM.

For the compound `CC1=C(C(O)CO)c2cc3nc(cc4[nH]c(cc5[nH]c(cc1n2)c(C)c5CCC(=O)O)c(CCC(=O)O)c4C)C(C(O)CO)=C3C` (stereo unspecified), the EC50 is, setting by setting: (Human immunodeficiency virus 1) 54.4 µM; under setting [1], 55 µM.

In the case of `C=Cc1c(C)c2cc3[nH]c(cc4nc(cc5nc(cc1[nH]2)C(C)=C5CCC(=O)O)C(CCC(=O)O)=C4C)c(C)c3C(C)O` (stereo unspecified), the EC50 by setting is: (Human immunodeficiency virus 1) 6.16 µM; under setting [1], 6.17 µM.

Consider `O=C(O)CCC1=C(CC(=O)O)c2cc3nc(cc4[nH]c(cc5[nH]c(cc1n2)c(CCC(=O)O)c5CC(=O)O)c(CC(=O)O)c4CCC(=O)O)C(CC(=O)O)=C3CCC(=O)O`, for which the EC50 (Human immunodeficiency virus 1) came to 3.02 µM and the EC50 under setting [1] was 3.02 µM.

In the case of `C1=C/C2=C(\c3ccccc3)C3C=CC(N3)/C(c3ccccc3)=c3/cc/c([nH]3)=C(\c3ccccc3)C3=N/C(=C(/c4ccccc4)C1=N2)C=C3` (stereo unspecified), the EC50 is, setting by setting: (Human immunodeficiency virus 1) 54.7 µM; under setting [1], 55 µM.

As to `O=C(O)c1ccc(/C2=C3\C=CC(=N3)/C(c3ccc(Cl)cc3)=C3/C=CC(=N3)/C(c3ccc(C(=O)O)cc3)=c3/cc/c([nH]3)=C(\c3ccc(C(=O)O)cc3)C3C=CC2N3)cc1` (stereo unspecified), the EC50 is, setting by setting: (Human immunodeficiency virus 1) 0.758 µM; under setting [1], 1.32 µM.

Regarding `CC1=C(CCC(=O)O)c2cc3nc(cc4[nH]c(cc5[nH]c(cc1n2)c(CCC(=O)O)c5CC(=O)O)c(CCC(=O)O)c4C)C(CCC(=O)O)=C3C`, the EC50 by setting is: (Human immunodeficiency virus 1) 43.3 µM; under setting [1], 43.7 µM.

Take `C=CC1=C(C)c2cc3nc(cc4[nH]c(cc5[nH]c(cc1n2)c(C)c5CO)c(C)c4CCC(=O)O)C(CCC(=O)O)=C3C`: the EC50 runs as follows: (Human immunodeficiency virus 1) 5.59 µM; under setting [1], 5.62 µM.

Compound `O=C(O)c1ccc(/C2=C3\C=CC(=N3)/C(c3ccccc3)=c3/cc/c([nH]3)=C(\c3ccc(C(=O)O)cc3)C3C=CC(N3)/C(c3ccc(C(=O)O)cc3)=C3/C=CC2=N3)cc1` (stereo unspecified) gave an EC50 (Human immunodeficiency virus 1) of 0.612 µM.

Turning to `C=CC1=C(C)c2cc3nc(cc4[nH]c(cc5c(C=C)c(C)c(cc1n2)n5C)c(C)c4CCC(=O)O)C(CCC(=O)O)=C3C`, the EC50 is, setting by setting: (Human immunodeficiency virus 1) 1.03 µM; under setting [1], 1.02 µM.
